Experimental data published in patent US20150093333A1, “COMPOSITIONS, METHODS AND USES FOR PEPTIDES IN DIAGNOSIS, PROGRESSION AND TREATMENT OF CANCERS” (THE REGENTS OF THE UNIVERSITY OF COLORADO, body corporate, priority 2003, published 2015).
Like-named read-outs stand apart in the source and are kept apart here.

Columns and labels:
[1] = test system: exosomes (Ex); assay: Fluorescence enhancement of BK derived peptides with exosomes from rat blood plasma; type: binding; details: Ex treated peptide vs untreated
Source text: In support of the observations with synthetic vesicles to translate to naturally-occurring extracellular vesicles, exosomes (Ex) purified from blood plasma of rats underwent inescapable tailshock stress as an acceptable model of exosome release. Ex have diameters of 40-100 nm, therefore providing a good biological model for testing the curvature-sensing peptides. […] The total number of Ex in the sample was counted by nanoparticle tracking analysis to ensure that is in the same order of magnitude as the 500 μM lipids in the synthetic models.

[2] = target: lipid vesicles; assay: Fluorescence anisotropy titration of BK derived peptides with lipid vesicles; type: binding; details: read-out: Dissociation constant (Kd)
Experimental: In another method, synthetic lipid vesicles of various sizes were prepared to model different membrane curvatures for testing interactions. Three compositions of vesicles were designed to closely resemble natural biological membranes named lipid model (LM) 1, 2, and 3. These vesicles were prepared by extrusion under inert, pressure-controlled method through polycarbonate membranes with pore sizes of 400, 80, and 30 nm to cover a wide range of curvatures. Since curvature is defined as the inverse of radius, the smallest size represents vesicles with the highest curvature. […] These vesicles were further characterized by transmission electron microscopy (TEM) to verify the sizes found by DLS.
In other exemplary methods, binding strength of the interactions were assessed. Fluorescence anisotropy (FA) assay was adopted to measure the binding constants. The peptide partitions between the hydrophobic lipid bilayer and the aqueous solvent and the dissociation constant (Kd) calculated as the reciprocal of the molar partition coefficient. A constant concentration of peptide was titrated with increasing concentration of lipid vesicles and the FA due to the change in the rotational time of the small peptide when it binds to the relatively bigger lipid vesicles was measured and plotted versus the total lipid concentration. […] Fluorescence anisotropy titration was performed to obtain the Kd values. Lower values indicate stronger binding. LM=liposome model. [Peptide]=1 μM; [Lipid titrant]=2 mM.

monomeric Bradykinin derivative: GRPPGFSPFR with ε-azidolysine and NBD-X fluorophore at the N-terminus [Peptide 1]
fluorescence intensity [1]: 3.09±0.08 RFU
Kd ([2]; LM 1 V58): 996 ± 230 µM
Kd ([2]; LM 1 V116): 940 ± 160 µM
Kd ([2]; LM 1 V454): 7.14 µM
Kd ([2]; LM 2 V116): 585 ± 62 µM
Kd ([2]; LM 2 V454): > 1000 µM
Kd ([2]; LM 2 V): 488 ± 72 µM
Kd ([2]; LM 3 V58): 407 ± 56 µM
Kd ([2]; LM 3 V116): 893 ± 101 µM
Kd ([2]; LM 3 V454): 902 ± 141 µM
